pEC50: −log10 of the molar value.

For the first assay, the target named is T1, Full-length (FL)-PRMT5-MEP50 enzyme complex (Homo sapiens, UniProt O14744).
T1 construct: Full-length (FL)-PRMT5-MEP50 enzyme complex (recombinant proteins from baculovirus-transfected Sf21 cells: FL-PRMT5; MW=73837 kDa and FL-MEP50; MW=38614); made in house; host or cells: baculovirus-transfected Sf21 insect cells
T1 sequence (O14744 whole entry): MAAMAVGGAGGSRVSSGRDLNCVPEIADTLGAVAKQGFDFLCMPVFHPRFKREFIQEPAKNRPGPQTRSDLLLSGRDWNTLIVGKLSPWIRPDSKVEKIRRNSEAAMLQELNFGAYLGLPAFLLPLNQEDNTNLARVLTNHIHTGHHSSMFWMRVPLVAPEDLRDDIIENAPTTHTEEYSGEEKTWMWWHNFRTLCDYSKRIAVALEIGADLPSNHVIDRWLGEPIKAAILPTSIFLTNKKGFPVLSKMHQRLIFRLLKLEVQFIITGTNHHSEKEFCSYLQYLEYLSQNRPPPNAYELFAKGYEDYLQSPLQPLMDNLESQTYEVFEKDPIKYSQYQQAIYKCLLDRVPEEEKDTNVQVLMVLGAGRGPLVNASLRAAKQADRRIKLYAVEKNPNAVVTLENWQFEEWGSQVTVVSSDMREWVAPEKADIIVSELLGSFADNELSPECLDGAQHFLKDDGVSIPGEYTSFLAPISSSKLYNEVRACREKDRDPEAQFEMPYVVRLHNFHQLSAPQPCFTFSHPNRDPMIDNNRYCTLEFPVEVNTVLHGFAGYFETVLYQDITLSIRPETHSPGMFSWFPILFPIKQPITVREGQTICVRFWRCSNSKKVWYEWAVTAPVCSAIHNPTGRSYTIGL
T1 sequence (Q9BQA1 whole entry partner): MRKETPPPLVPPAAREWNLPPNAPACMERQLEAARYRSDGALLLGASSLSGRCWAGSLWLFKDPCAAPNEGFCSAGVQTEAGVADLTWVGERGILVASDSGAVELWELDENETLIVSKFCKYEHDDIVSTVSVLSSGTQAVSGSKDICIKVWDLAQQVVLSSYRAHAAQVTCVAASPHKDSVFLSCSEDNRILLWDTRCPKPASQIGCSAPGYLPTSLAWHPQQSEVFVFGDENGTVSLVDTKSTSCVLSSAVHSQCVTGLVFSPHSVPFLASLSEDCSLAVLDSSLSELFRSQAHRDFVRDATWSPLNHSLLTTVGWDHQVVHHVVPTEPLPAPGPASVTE
Briefly: PRMT5-MEP50 Enzyme Methylation Assay. Format: biochemical. The note with it: one EC50: 4 parameters single site sigmoidal model; EC50 1: first value of 7 parameters biphasic model; 1.0 nM PRMT5-MEP50, 75 nM biotinylated peptide, 15 μM SAM; read-out: Enzyme Methylation Assay (EC50 or EC50 1). The procedure:
PRMT5-MEP50 biochemical assay is a direct measurement of the methylation activity of the enzyme complex on a short peptide substrate derived from the N-terminus of H4 histone. Methylation experiment is performed with recombinant PRMT5-MEP50 protein complex. The assessment of inhibitory effect of small molecules is measured by the effectiveness of the compounds to inhibit this reaction (EC50).
In this assay, the potency (EC50) of each compound was determined from a twenty-point (1:2 serial dilution; top compound concentration of 100000 nM) titration curve using the following outlined procedure. To each well of a white ProxiPlus 384 well-plate, 100 nL of compound (1% DMSO in final assay volume of 10 μL) was dispensed, followed by the addition of 8 μL of 1× assay buffer (50 mM Bicine pH 8.0, 1 mM DTT, 0.004% Tween20, 0.01% BSA) containing 1.25 nM of Full-length (FL)-PRMT5-MEP50 enzyme complex (recombinant proteins from baculovirus-transfected Sf21 cells: FL-PRMT5; MW=[…] and FL-MEP50; MW=38614) and 1 μL of 150 μM S-(5′-Adenosyl)-L-Methionine Chloride (SAM). Plates were sealed and placed in a 37° C. humidified chamber for a 60 minutes pre-incubation with compound. Subsequently, each reaction was initiated by the addition of 1 μL 1× assay buffer containing 750 nM biotinylated H4R3(Mel) peptide. The final reaction in each well of 10 μL consists of 1.0 nM PRMT5-MEP50, 75 nM biotinylated-peptide, and 15 μM SAM. Methylation reactions proceeded for 150 minutes in a sealed plate at 37° C. Reactions were immediately quenched by the addition of 1 μL of 5% formic acid. Plates were then frozen and shipped to SAMDI™ Tech Inc. to determine the percent conversion from H4R3(Mel) to H4R3(Me2). Dose-response curves were generated by plotting percent effect (% product conversion; Y-axis) vs. Log 10 compound concentrations (X-axis). EC50 values were determined by non-linear regression according to models for either sigmoidal (4 parameters) or biphasic (7 parameters) dose-response curves.
As usually defined, the pEC50 is the EC50 on a negative log10 scale, so that one unit is a factor of ten. As for `Nc1nc2cc(C[C@@H]3CC[C@@]4(O)[C@@H]3C[C@@H](n3cc(F)c5c(N)ncnc53)[C@@H]4O)ccc2cc1Br` [Example 42, (1S,2R,3aR,4S,6aR)-4-((2-amino-3-bromoquinolin-7-yl)methyl)-2-(4-amino-5-fluoro-7H-pyrrolo[2,3-d]pyrimidin-7-yl)hexahydropentalene-1,6a(1H)-diol], the negative-log EC50 (pEC50) is 9.52.
The same measure, in the same setting: under `Nc1nc2cc(C[C@@H]3CC[C@@]4(O)[C@@H]3O[C@@H](n3cc(C(F)F)c5c(N)ncnc53)[C@@H]4O)ccc2cc1Br` [Example 43, (2R,3R,3aS,6S,6aR)-6-[(2-amino-3-bromoquinolin-7-yl)methyl]-2-[4-amino-5-(difluoromethyl)-7H-pyrrolo[2,3-d]pyrimidin-7-yl]hexahydro-3aH-cyclopenta[b]furan-3,3a-diol] stands 9.40; under `Cc1nc(N)c2c(F)cn([C@@H]3O[C@@H]4[C@H](Cc5ccc6cc(F)c(N)nc6c5)CC[C@]4(O)[C@H]3O)c2n1` [Example 44, (2R,3R,3aS,6S,6aR)-6-((2-amino-3-fluoroquinolin-7-yl)methyl)-2-(4-amino-5-fluoro-2-methyl-7H-pyrrolo[2,3-d]pyrimidin-7-yl)hexahydro-3aH-cyclopenta[b]furan-3,3a-diol 2,2,2-trifluoroacetate], 9.40.
With `Nc1nc2cc(C[C@@H]3CC[C@@]4(O)[C@@H]3O[C@@H](n3ccc5c(N)nc(F)nc53)[C@@H]4O)ccc2cc1F` [Example 45, (2R,3R,3aS,6S,6aR)-2-(4-amino-2-fluoro-7H-pyrrolo[2,3-d]pyrimidin-7-yl)-6-((2-amino-3-fluoroquinolin-7-yl)methyl)hexahydro-3aH-cyclopenta[b]furan-3,3a-diol], the pEC50 was 9.52.
The same measure, in the same setting: under `Nc1nc2cc(C[C@@H]3CC[C@@]4(O)[C@@H]3O[C@@H](n3ccc5c(N)nc(Cl)nc53)[C@@H]4O)ccc2cc1Cl` [Example 47, (2R,3R,3aS,6S,6aR)-2-(4-amino-2-chloro-7H-pyrrolo[2,3-d]pyrimidin-7-yl)-6-[(2-amino-3-chloroquinolin-7-yl)methyl]hexahydro-3aH-cyclopenta[b]furan-3,3a-diol] stands 9.70; under `Nc1nc2cc(C[C@@H]3CC[C@@]4(O)[C@@H]3O[C@@H](n3ccc5c(N)nc(Cl)nc53)[C@@H]4O)ccc2cc1F` [Example 48, (2R,3R,3aS,6S,6aR)-2-(4-amino-2-chloro-7H-pyrrolo[2,3-d]pyrimidin-7-yl)-6-[(2-amino-3-fluoroquinolin-7-yl)methyl]hexahydro-3aH-cyclopenta[b]furan-3,3a-diol], 9.30; under `Nc1nc2cc(O[C@H]3CC[C@@]4(O)[C@@H]3O[C@@H](n3cc(-c5ccccc5)c5c(N)ncnc53)[C@@H]4O)ccc2cc1Br` [Example 49, (2R,3R,3aS,6S,6aR)-6-[(2-amino-3-bromoquinolin-7-yl)oxy]-2-(4-amino-5-phenyl-7H-pyrrolo[2,3-d]pyrimidin-7-yl)hexahydro-3aH-cyclopenta[b]furan-3,3a-diol], 9.30.
On the same count and under the same terms, next, `Nc1nc2cc(C[C@@H]3CC[C@@]4(O)[C@@H]3O[C@@H](n3cc(C(F)F)c5c(N)ncnc53)[C@@H]4O)ccc2cc1F` [Example 51, (2R,3R,3aS,6S,6aR)-2-[4-amino-5-(difluoromethyl)-7H-pyrrolo[2,3-d]pyrimidin-7-yl]-6-[(2-amino-3-fluoroquinolin-7-yl)methyl]hexahydro-3aH-cyclopenta[b]furan-3,3a-diol]: 8.92; `Nc1nc2cc(O[C@H]3CC[C@@]4(O)[C@@H]3O[C@@H](n3cc(C5CC5)c5c(N)ncnc53)[C@@H]4O)ccc2cc1Br` [Example 52, (2R,3R,3aS,6S,6aR)-6-[(2-amino-3-bromoquinolin-7-yl)oxy]-2-(4-amino-5-cyclopropyl-7H-pyrrolo[2,3-d]pyrimidin-7-yl)hexahydro-3aH-cyclopenta[b]furan-3,3a-diol]: 9.30; `Nc1nc2cc(C[C@H]3[C@H]4O[C@@H](n5ccc6c(N)ncnc65)[C@H](O)[C@@]4(O)CC3(F)F)ccc2cc1F` [Example 53, (2R,3R,3aS,6S,6aR)-6-[(2-amino-3-fluoroquinolin-7-yl)methyl]-2-(4-amino-7H-pyrrolo[2,3-d]pyrimidin-7-yl)-5,5-difluorohexahydro-3aH-cyclopenta[b]furan-3,3a-diol]: 9.52.
On the same count and under the same terms, under `Nc1nc2cc(C[C@H]3[C@H]4O[C@@H](n5ccc6c(N)ncnc65)[C@H](O)[C@@]4(O)C[C@@H]3F)ccc2cc1F` [Example 54, (2R,3R,3aS,5S,6S,6aR)-6-[(2-amino-3-fluoroquinolin-7-yl)methyl]-2-(4-amino-7H-pyrrolo[2,3-d]pyrimidin-7-yl)-5-fluorohexahydro-3aH-cyclopenta[b]furan-3,3a-diol] stands 9.52.
Consider `Nc1nc2cc(C[C@H]3[C@H]4O[C@@H](n5cc(F)c6c(N)ncnc65)[C@H](O)[C@@]4(O)C[C@@H]3F)ccc2cc1F` [Example 55, (2R,3R,3aS,5S,6S,6aR)-2-(4-amino-5-fluoro-7H-pyrrolo[2,3-d]pyrimidin-7-yl)-6-[(2-amino-3-fluoroquinolin-7-yl)methyl]-5-fluorohexahydro-3aH-cyclopenta[b]furan-3,3a-diol, 2,2,2-trifluoroethanol], for which the pEC50 is 9.30.
Still for that read-out and setting: next, `Nc1nc2cc(O[C@H]3CC[C@@]4(O)[C@@H]3O[C@@H](n3cc(F)c5c(N)ncnc53)[C@@H]4O)ccc2cc1Br` [Example 56, (2R,3R,3aS,6S,6aR)-6-((2-amino-3-bromoquinolin-7-yl)oxy)-2-(4-amino-5-fluoro-7H-pyrrolo[2,3-d]pyrimidin-7-yl)hexahydro-3aH-cyclopenta[b]furan-3,3a-diol]: 9.70; `Nc1ncnc2c1ccn2[C@@H]1O[C@@H]2[C@@H](Oc3ccc4ccc(NCC(F)(F)F)nc4c3)CC[C@]2(O)[C@H]1O` [Example 57, (2R,3R,3aS,6S,6aR)-2-(4-amino-7H-pyrrolo[2,3-d]pyrimidin-7-yl)-6-((2-((2,2,2-trifluoroethyl)amino)quinolin-7-yl)oxy)hexahydro-3aH-cyclopenta[b]furan-3,3a-diol]: 9.15.
For `Nc1ncnc2c1ccn2[C@@H]1O[C@@H]2[C@@H](Oc3ccc4ccc(NCC5CC5)nc4c3)CC[C@]2(O)[C@H]1O` [Example 58, (2R,3R,3aS,6S,6aR)-2-(4-amino-7H-pyrrolo[2,3-d]pyrimidin-7-yl)-6-((2-((cyclopropylmethyl)amino)quinolin-7-yl)oxy)hexahydro-3aH-cyclopenta[b]furan-3,3a-diol], the negative-log EC50 (pEC50) is 9.40.
As to `Nc1nc2cc(C[C@@H]3CC[C@@]4(O)[C@@H]3O[C@@H](n3cc(F)c5c(N)ncnc53)[C@@H]4O)ccc2cc1F` [Example 59, (2R,3R,3aS,6S,6aR)-6-((2-amino-3-fluoroquinolin-7-yl)methyl)-2-(4-amino-5-fluoro-7H-pyrrolo[2,3-d]pyrimidin-7-yl)hexahydro-3aH-cyclopenta[b]furan-3,3a-diol], the pEC50 was 9.22.
On the same count and under the same terms, under `Cc1cn([C@@H]2O[C@@H]3[C@@H](Oc4ccc5cc(Br)c(N)nc5c4)CC[C@]3(O)[C@H]2O)c2ncnc(N)c12` [Example 60, (2R,3R,3aS,6S,6aR)-6-((2-amino-3-bromoquinolin-7-yl)oxy)-2-(4-amino-5-methyl-7H-pyrrolo[2,3-d]pyrimidin-7-yl)hexahydro-3aH-cyclopenta[b]furan-3,3a-diol] stands 9.40; under `Cc1nc(N)c2ccn([C@@H]3O[C@@H]4[C@H](Cc5ccc6cc(Br)c(N)nc6c5)CC[C@]4(O)[C@H]3O)c2n1` [Example 61, (2R,3R,3aS,6S,6aR)-2-(4-amino-2-methyl-7H-pyrrolo[2,3-d]pyrimidin-7-yl)-6-((2-amino-3-bromoquinolin-7-yl)methyl)hexahydro-3aH-cyclopenta[b]furan-3,3a-diol], 9.30; under `Cc1cn([C@@H]2O[C@@H]3[C@H](Cc4ccc5cc(F)c(N)nc5c4)CC[C@]3(O)[C@H]2O)c2ncnc(N)c12` [Example 62, (2R,3R,3aS,6S,6aR)-6-((2-amino-3-fluoroquinolin-7-yl)methyl)-2-(4-amino-5-methyl-7H-pyrrolo[2,3-d]pyrimidin-7-yl)hexahydro-3aH-cyclopenta[b]furan-3,3a-diol 2,2,2-trifluoroacetate], 9.30.

Still in this assay, the particulars now being: second EC50 of 7 parameters biphasic model; 1.0 nM PRMT5-MEP50, 75 nM biotinylated peptide, 15 μM SAM; read-out: Enzyme Methylation Assay (EC50 2).
For the compound `Nc1nc2cc(C[C@H]3[C@H]4O[C@@H](n5cc(F)c6c(N)ncnc65)[C@H](O)[C@@]4(O)C[C@@H]3F)ccc2cc1F` [Example 55, (2R,3R,3aS,5S,6S,6aR)-2-(4-amino-5-fluoro-7H-pyrrolo[2,3-d]pyrimidin-7-yl)-6-[(2-amino-3-fluoroquinolin-7-yl)methyl]-5-fluorohexahydro-3aH-cyclopenta[b]furan-3,3a-diol, 2,2,2-trifluoroethanol], the pEC50 is 6.72.
Same read-out and setting: under `Nc1ncnc2c1ccn2[C@@H]1O[C@@H]2[C@@H](Oc3ccc4ccc(NCC(F)(F)F)nc4c3)CC[C@]2(O)[C@H]1O` [Example 57, (2R,3R,3aS,6S,6aR)-2-(4-amino-7H-pyrrolo[2,3-d]pyrimidin-7-yl)-6-((2-((2,2,2-trifluoroethyl)amino)quinolin-7-yl)oxy)hexahydro-3aH-cyclopenta[b]furan-3,3a-diol] stands 6.84.

The values above are taken from patent publication US20230062119A1, “USE OF BIOMARKERS IN IDENTIFYING PATIENTS THAT WILL BE RESPONSIVE TO TREATMENT WITH A PRMT5 INHIBITOR” (Merck Sharp & Dohme LLC, priority 2019, published 2023).
